What was measured:
[1] = molecular target: Human plasma kallikrein (Homo sapiens (Human), UniProt P03952); experiment: Kallikrein Assay (fluorogenic substrate Acetyl-K-P-R-AFC); assay type: biochemical; conditions: Plasma Kallikrein (PKal)
Procedure: (§1) The effectiveness of a compound of the present invention as an inhibitor of Kallikrein can be determined using a relevant purified serine protease, and an appropriate synthetic substrate. The rate of hydrolysis of the chromogenic or fluorogenic substrate by the relevant serine protease was measured both in the absence and presence of compounds of the present invention. Assays were conducted at room temperature or at 37° C. […] A decrease in the rate of fluorescence change in the presence of inhibitor is indicative of enzyme inhibition. Such methods are known to one skilled in the art. The results of this assay are expressed as the half-maximal inhibitory concentrations (IC50), or the inhibitory constant, Ki.
Kallikrein determinations were made in 50 mM HEPES buffer at pH 7.4 containing 150 mM NaCl, 5 mM CaC12, and 0.1% PEG 8000 (polyethylene glycol; Fisher Scientific). Determinations were made using purified Human plasma kallikrein at a final concentration of 0.5 nM (Enzyme Research Laboratories) and the synthetic substrate, Acetyl-K-P-R-AFC (Sigma # C6608) at a concentration of […].
Times required to achieve equilibration between enzyme and inhibitor were determined in control experiments. […] IC50 was determined by inflection point from a four parameter logistic curve fit. Ki was calculated using the Cheng Prusoff equation, Ki = IC50/(1+([S]/Km)).

[2] = molecular target: human Factor XIa (Homo sapiens (Human), UniProt P03951); experiment: Factor XIa Assay (fluorogenic substrate GPR-AFC); assay type: biochemical; conditions: Factor XIa (FXIa)
Chain of human Factor XIa (P03951 388-625 limits assumed): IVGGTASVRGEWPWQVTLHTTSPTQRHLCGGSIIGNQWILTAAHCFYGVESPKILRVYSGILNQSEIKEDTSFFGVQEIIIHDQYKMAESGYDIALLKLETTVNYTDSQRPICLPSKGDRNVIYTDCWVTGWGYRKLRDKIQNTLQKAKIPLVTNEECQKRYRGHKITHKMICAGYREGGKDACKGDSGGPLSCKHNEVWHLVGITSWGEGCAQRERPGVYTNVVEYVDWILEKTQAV
Chain of human Factor XIa (P03951 19-387 partner limits assumed): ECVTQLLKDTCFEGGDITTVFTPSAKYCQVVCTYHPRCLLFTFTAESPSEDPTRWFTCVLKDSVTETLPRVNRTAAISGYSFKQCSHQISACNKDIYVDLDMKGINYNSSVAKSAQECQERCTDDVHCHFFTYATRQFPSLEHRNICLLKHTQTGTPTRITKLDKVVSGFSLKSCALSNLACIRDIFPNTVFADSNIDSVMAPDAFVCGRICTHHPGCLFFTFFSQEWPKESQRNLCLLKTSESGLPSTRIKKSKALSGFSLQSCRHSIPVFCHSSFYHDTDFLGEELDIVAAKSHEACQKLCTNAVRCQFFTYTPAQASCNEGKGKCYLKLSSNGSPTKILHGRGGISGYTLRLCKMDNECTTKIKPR
Procedure: as §1, with “Coagulation Factor XIa” for “Kallikrein”
Compounds were pre-incubated for 30 minutes at 25° C. with human (0.04 nM) Factor XIa in 50 mM HEPES buffer with 150 mM sodium chloride, 5 mM calcium chloride, 0.1% PEG 8000, pH 7.4. […] The % inhibition for each data point was calculated from the data and analyzed using the log (inhibitor) vs. response four parameters equation to determine the half-maximal inhibitory concentrations (IC50). The IC50 were converted to equilibrium inhibitory constants (Ki) using the Cheng-Prusoff equation.

Chain of Human plasma kallikrein (P03952 391-638): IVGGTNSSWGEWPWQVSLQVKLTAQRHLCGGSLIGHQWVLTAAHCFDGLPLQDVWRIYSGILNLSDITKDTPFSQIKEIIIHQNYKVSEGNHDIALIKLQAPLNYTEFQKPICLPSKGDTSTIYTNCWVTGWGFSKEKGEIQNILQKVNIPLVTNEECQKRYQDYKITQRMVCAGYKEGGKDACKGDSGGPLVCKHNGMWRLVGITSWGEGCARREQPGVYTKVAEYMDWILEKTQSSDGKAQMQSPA
Chain of Human plasma kallikrein (P03952 20-390 partner): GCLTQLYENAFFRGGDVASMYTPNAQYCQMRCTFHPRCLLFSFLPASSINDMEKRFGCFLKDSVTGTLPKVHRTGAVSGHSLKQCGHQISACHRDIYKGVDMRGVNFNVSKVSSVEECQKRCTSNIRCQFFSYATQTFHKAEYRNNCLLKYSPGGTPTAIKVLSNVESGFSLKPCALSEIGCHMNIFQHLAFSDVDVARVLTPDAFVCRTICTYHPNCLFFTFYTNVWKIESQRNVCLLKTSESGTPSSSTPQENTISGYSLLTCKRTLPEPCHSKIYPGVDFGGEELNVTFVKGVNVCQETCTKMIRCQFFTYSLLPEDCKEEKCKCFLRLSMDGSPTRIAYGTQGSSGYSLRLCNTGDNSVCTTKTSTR

SMILES	IC50 [1] [µM]	IC50 [2] [µM]
Cc1nc(C(C)n2cc(NC(=O)c3cncc(-c4c(C(F)(F)F)ccc(Cl)c4F)n3)cn2)cnc1N1C[C@H]2C[C@H]2C1=O (single isomer, unassigned) [Example 18]	0.0195	4.08
Cc1nc(C(C)n2cc(NC(=O)c3cncc(-c4c(C(F)(F)F)ccc(Cl)c4F)n3)cn2)cnc1N1C[C@H]2C[C@H]2C1=O (single isomer, unassigned) [Example 19, 6-(3-Chloro-2-fluoro-6-(trifluoromethyl)phenyl)-N-(1-((R or S)-1-(6-methyl-5-((1R,5S)-2-oxo-3-azabicyclo[3.1.0]hexan-3-yl)pyrazin-2-yl)ethyl)-1H-pyrazol-4-yl)pyrazine-2-carboxamide]	0.0037	> 10
CC(c1cnc(N2C[C@H]3C[C@H]3C2=O)cn1)n1cc(NC(=O)c2cncc(-c3c(C(F)F)ccc(Cl)c3F)n2)cn1 (single isomer, unassigned) [Example 20, 6-(3-Chloro-6-(difluoromethyl)-2-fluorophenyl)-N-(1-((S or R)-1-(5-((1R,5S)-2-oxo-3-azabicyclo[3.1.0]hexan-3-yl)pyrazin-2-yl)ethyl)-1H-pyrazol-4-yl)pyrazine-2-carboxamide]	0.0285	> 10
Cc1ncc(-c2c(C(F)F)ccc(Cl)c2F)nc1C(=O)Nc1cnn(C(C)c2cnc(N3C[C@H]4C[C@H]4C3=O)nc2)c1 (single isomer, unassigned) [Example 29, 6-(3-Chloro-6-(difluoromethyl)-2-fluorophenyl)-3-methyl-N-(1-((S or R)-1-(2-((1R,5S)-2-oxo-3-azabicyclo[3.1.0]hexan-3-yl)pyrimidin-5-yl)ethyl)-1H-pyrazol-4-yl)pyrazine-2-carboxamide]	0.0096	2.04
CC(c1cnc(N2C[C@H]3C[C@H]3C2=S)nc1)n1cc(NC(=O)c2cncc(-c3c(C(F)F)ccc(Cl)c3F)n2)cn1 (single isomer, unassigned) [Example 31, 6-(3-Chloro-6-(difluoromethyl)-2-fluorophenyl)-N-(1-((S or R)-1-(2-((1R,5S)-2-thioxo-3-azabicyclo[3.1.0]hexan-3-yl)pyrimidin-5-yl)ethyl)-1H-pyrazol-4-yl)pyrazine-2-carboxamide]	0.0063	> 10
CC(c1cnc(N2C[C@H]3C[C@H]3C2=S)nc1)n1cc(NC(=O)c2cncc(-c3c(C(F)F)ccc(Cl)c3F)n2)cn1 (single isomer, unassigned) [Example 32, 6-(3-Chloro-6-(difluoromethyl)-2-fluorophenyl)-N-(1-((R or S)-1-(2-((1R,5S)-2-thioxo-3-azabicyclo[3.1.0]hexan-3-yl)pyrimidin-5-yl)ethyl)-1H-pyrazol-4-yl)pyrazine-2-carboxamide]	0.0164	> 10
Cc1nc(N2C[C@H]3C[C@H]3C2=O)ncc1C(C)n1cc(NC(=O)c2nc(-c3c(C(F)F)ccc(Cl)c3F)cnc2C)cn1 (single isomer, unassigned) [Example 43]	0.0734	4.51
Cc1nc(N2C[C@H]3C[C@H]3C2=O)cnc1C(C)n1cc(NC(=O)c2cncc(-c3c(C(F)F)ccc(Cl)c3F)n2)cn1 (single isomer, unassigned) [Example 53, 6-(3-Chloro-6-(difluoromethyl)-2-fluorophenyl)-N-(1-((S or R)-1-(3-methyl-5-((1R,5S)-2-oxo-3-azabicyclo[3.1.0]hexan-3-yl)pyrazin-2-yl)ethyl)-1H-pyrazol-4-yl)pyrazine-2-carboxamide]	0.0383	6.63

Compounds with a lower IC50 [1], results first:

IC50 [1] [µM]	IC50 [2] [µM]	SMILES
0.0019	1.16	Cc1nc(C(C)n2cc(NC(=O)c3cncc(-c4c(C(F)F)ccc(Cl)c4F)n3)cn2)cnc1N1C[C@H]2C[C@H]2C1=O (single isomer, unassigned) [Example 12, 6-(3-Chloro-6-(difluoromethyl)-2-fluorophenyl)-N-(1-((S or R)-1-(6-methyl-5-((1R,5S)-2-oxo-3-azabicyclo[3.1.0]hexan-3-yl)pyrazin-2-yl)ethyl)-1H-pyrazol-4-yl)pyrazine-2-carboxamide]
0.0005	2.82	Cc1nc(C(C)n2cc(NC(=O)c3cncc(-c4c(C(F)F)ccc(Cl)c4F)n3)cn2)cnc1N1C[C@H]2C[C@H]2C1=O (single isomer, unassigned) [Example 13, 6-(3-Chloro-6-(difluoromethyl)-2-fluorophenyl)-N-(1-((R or S)-1-(6-methyl-5-((1R,5S)-2-oxo-3-azabicyclo[3.1.0]hexan-3-yl)pyrazin-2-yl)ethyl)-1H-pyrazol-4-yl)pyrazine-2-carboxamide]
0.0008	0.55	Cc1ncc(-c2c(C(F)F)ccc(Cl)c2F)nc1C(=O)Nc1cnn(C(C)c2cnc(N3C[C@H]4C[C@H]4C3=O)c(C)n2)c1 (single isomer, unassigned) [Example 14, 6-(3-Chloro-6-(difluoromethyl)-2-fluorophenyl)-3-methyl-N-(1-((S or R)-1-(6-methyl-5-((1R,5S)-2-oxo-3-azabicyclo[3.1.0]hexan-3-yl)pyrazin-2-yl)ethyl)-1H-pyrazol-4-yl)pyrazine-2-carboxamide]
0.0004	0.992	Cc1ncc(-c2c(C(F)F)ccc(Cl)c2F)nc1C(=O)Nc1cnn(C(C)c2cnc(N3C[C@H]4C[C@H]4C3=O)c(C)n2)c1 (single isomer, unassigned) [Example 15, 6-(3-Chloro-6-(difluoromethyl)-2-fluorophenyl)-3-methyl-N-(1-((R or S)-1-(6-methyl-5-((1R,5S)-2-oxo-3-azabicyclo[3.1.0]hexan-3-yl)pyrazin-2-yl)ethyl)-1H-pyrazol-4-yl)pyrazine-2-carboxamide]
0.0019	0.772	Cc1nc(C(C)n2cc(NC(=O)c3cncc(-c4c(OC(F)F)ccc(Cl)c4F)n3)cn2)cnc1N1C[C@H]2C[C@H]2C1=O (single isomer, unassigned) [Example 16, 6-(3-Chloro-6-(difluoromethoxy)-2-fluorophenyl)-N-(1-((S or R)-1-(6-methyl-5-((1R,5S)-2-oxo-3-azabicyclo[3.1.0]hexan-3-yl)pyrazin-2-yl)ethyl)-1H-pyrazol-4-yl)pyrazine-2-carboxamide]
0.0007	1.74	Cc1nc(C(C)n2cc(NC(=O)c3cncc(-c4c(OC(F)F)ccc(Cl)c4F)n3)cn2)cnc1N1C[C@H]2C[C@H]2C1=O (single isomer, unassigned) [Example 17, 6-(3-Chloro-6-(difluoromethoxy)-2-fluorophenyl)-N-(1-((R or S)-1-(6-methyl-5-((1R,5S)-2-oxo-3-azabicyclo[3.1.0]hexan-3-yl)pyrazin-2-yl)ethyl)-1H-pyrazol-4-yl)pyrazine-2-carboxamide]
0.0018	2.83	Cc1ncc(-c2c(C(F)F)ccc(Cl)c2F)nc1C(=O)Nc1cnn(C(C)c2cnc(N3C[C@H]4C[C@H]4C3=O)nc2)c1 (single isomer, unassigned) [Example 30, 6-(3-Chloro-6-(difluoromethyl)-2-fluorophenyl)-3-methyl-N-(1-((R or S)-1-(2-((1R,5S)-2-oxo-3-azabicyclo[3.1.0]hexan-3-yl)pyrimidin-5-yl)ethyl)-1H-pyrazol-4-yl)pyrazine-2-carboxamide]
0.0007	1.52	Cc1nc(N2C[C@H]3C[C@H]3C2=O)ncc1C(C)n1cc(NC(=O)c2nc(-c3c(C(F)F)ccc(Cl)c3F)cnc2C)cn1 (single isomer, unassigned) [Example 42]
0.0024	1.38	Cc1ncc(-c2c(C(F)F)ccc(Cl)c2F)nc1C(=O)Nc1cnn(C(C)c2cnc(N3C[C@H]4C[C@H]4C3=O)c(F)c2)c1 (single isomer, unassigned) [Example 51, 6-(3-Chloro-6-(difluoromethyl)-2-fluorophenyl)-N-(1-((S or R)-1-(5-fluoro-6-((1R,SS)-2-oxo-3-azabicyclo[3.1.0]hexan-3-yl)pyridin-3-yl)ethyl)-1H-pyrazol-4-yl)-3-methylpyrazine-2-carboxamide]
0.0011	4.83	Cc1ncc(-c2c(C(F)F)ccc(Cl)c2F)nc1C(=O)Nc1cnn(C(C)c2cnc(N3C[C@H]4C[C@H]4C3=O)c(F)c2)c1 (single isomer, unassigned) [Example 52, 6-(3-Chloro-6-(difluoromethyl)-2-fluorophenyl)-N-(1-((R or S)-1-(S-fluoro-6-((1R,5S)-2-oxo-3-azabicyclo[3.1.0]hexan-3-yl)pyridin-3-yl)ethyl)-1H-pyrazol-4-yl)-3-methylpyrazine-2-carboxamide]

— patent publication US20230286958A1, “PLASMA KALLIKREIN INHIBITORS” (Merck Sharp & Dohme LLC, priority 2020, published 2023)
